Source: ChEMBL document CHEMBL5465560, “Selectivity Literature for EUbOPEN Chemogenomic Library” (2024)
One block for each molecule: values may come before it.

What was measured:
[1] = biological target: T1, Peripheral plasma membrane protein CASK (Homo sapiens) (UniProt O14936); experiment: Selectivity interaction (KinomeScan (DiscoverX)) EUB0000595a CASK; settings: at 10 µM
T1 sequence (whole entry): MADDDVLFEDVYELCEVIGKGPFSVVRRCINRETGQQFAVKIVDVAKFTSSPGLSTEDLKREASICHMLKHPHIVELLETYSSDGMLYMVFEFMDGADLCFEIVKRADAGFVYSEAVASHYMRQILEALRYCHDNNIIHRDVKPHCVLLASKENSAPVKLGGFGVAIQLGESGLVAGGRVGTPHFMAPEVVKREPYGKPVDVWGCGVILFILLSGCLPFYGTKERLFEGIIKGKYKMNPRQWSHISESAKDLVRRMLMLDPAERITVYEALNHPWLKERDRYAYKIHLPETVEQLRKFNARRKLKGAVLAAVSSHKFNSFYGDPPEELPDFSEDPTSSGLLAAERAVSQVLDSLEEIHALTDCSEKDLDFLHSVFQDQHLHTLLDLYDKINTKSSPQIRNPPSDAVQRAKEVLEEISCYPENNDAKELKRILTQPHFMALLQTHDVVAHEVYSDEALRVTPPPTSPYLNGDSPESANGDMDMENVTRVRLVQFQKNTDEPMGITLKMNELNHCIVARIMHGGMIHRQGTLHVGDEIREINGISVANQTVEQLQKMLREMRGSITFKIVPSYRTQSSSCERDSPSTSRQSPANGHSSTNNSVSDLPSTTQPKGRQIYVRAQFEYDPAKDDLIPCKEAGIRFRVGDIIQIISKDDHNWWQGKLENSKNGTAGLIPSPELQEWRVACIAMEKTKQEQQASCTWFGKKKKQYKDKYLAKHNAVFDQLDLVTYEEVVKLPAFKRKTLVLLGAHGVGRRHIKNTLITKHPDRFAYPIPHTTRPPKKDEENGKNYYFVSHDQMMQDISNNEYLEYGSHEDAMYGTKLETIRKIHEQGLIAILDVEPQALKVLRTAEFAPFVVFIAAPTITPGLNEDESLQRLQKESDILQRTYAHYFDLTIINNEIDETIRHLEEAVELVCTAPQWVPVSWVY

[2] = biological target: T2, Serine/threonine-protein kinase Sgk3 (Homo sapiens) (UniProt Q96BR1); experiment: Selectivity interaction (KinomeScan (DiscoverX)) EUB0000595a SGK3; settings: at 10 µM
T2 sequence (whole entry): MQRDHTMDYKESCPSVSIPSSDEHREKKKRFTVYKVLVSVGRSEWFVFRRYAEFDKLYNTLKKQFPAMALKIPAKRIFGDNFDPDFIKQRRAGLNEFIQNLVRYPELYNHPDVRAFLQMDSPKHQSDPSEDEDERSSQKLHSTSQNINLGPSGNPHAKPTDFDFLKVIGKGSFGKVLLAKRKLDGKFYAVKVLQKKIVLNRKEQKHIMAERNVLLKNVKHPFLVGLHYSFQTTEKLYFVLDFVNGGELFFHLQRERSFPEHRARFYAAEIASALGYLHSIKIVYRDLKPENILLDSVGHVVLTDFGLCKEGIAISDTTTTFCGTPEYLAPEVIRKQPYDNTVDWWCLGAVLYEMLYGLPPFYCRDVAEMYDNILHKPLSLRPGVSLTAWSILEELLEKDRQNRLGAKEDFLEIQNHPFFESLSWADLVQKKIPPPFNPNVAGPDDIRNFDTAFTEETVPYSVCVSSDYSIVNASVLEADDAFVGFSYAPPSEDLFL

[3] = biological target: Dual specificity protein kinase CLK1 (Homo sapiens, UniProt P49759); experiment: Selectivity interaction (ProQinase) EUB0000171b CLK1
Dual specificity protein kinase CLK1, sequence (P49759 whole entry, looked up, the tested form may be a part): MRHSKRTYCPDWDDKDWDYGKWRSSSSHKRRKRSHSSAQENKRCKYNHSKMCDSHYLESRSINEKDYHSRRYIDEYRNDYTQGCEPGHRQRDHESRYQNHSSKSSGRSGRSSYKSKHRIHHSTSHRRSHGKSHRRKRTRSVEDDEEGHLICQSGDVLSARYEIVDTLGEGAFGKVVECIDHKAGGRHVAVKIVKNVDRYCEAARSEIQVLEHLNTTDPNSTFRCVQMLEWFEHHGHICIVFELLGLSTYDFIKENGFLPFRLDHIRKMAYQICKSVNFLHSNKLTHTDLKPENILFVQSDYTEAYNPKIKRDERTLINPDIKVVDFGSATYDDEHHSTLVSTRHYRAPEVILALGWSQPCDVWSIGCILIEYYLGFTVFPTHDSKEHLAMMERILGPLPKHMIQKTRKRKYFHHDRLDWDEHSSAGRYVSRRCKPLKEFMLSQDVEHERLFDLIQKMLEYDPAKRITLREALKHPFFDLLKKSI

[4] = biological target: T3, Discoidin domain-containing receptor 2 (Homo sapiens) (UniProt Q16832); experiment: Selectivity interaction (Upstate Kinase Profiler service (Millipore)) EUB0000056c DDR2; settings: at 1 µM
T3 sequence (whole entry): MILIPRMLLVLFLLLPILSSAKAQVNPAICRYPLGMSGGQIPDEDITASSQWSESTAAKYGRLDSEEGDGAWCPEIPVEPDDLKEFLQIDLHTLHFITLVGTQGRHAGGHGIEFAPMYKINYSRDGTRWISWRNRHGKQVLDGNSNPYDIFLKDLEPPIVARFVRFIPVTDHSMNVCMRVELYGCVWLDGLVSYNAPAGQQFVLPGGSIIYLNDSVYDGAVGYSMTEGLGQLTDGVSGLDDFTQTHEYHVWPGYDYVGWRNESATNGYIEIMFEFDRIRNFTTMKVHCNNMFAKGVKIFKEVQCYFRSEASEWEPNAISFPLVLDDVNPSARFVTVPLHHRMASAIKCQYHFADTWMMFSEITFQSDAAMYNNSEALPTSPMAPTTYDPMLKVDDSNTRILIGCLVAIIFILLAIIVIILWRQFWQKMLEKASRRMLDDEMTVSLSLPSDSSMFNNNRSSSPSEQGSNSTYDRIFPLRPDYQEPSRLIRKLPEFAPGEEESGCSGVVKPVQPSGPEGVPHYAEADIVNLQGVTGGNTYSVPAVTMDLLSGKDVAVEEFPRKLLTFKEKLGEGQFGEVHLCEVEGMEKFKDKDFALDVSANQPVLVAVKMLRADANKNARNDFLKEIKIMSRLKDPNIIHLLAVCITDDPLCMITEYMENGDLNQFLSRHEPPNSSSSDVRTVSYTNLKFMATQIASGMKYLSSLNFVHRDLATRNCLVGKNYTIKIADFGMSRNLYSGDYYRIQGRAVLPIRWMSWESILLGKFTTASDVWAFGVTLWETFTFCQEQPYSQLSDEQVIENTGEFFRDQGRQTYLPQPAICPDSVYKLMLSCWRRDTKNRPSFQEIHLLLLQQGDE

SMILES: COCC(=O)NC/C=C/c1ccc2ncnc(Nc3ccc(Oc4ccc(C)nc4)c(C)c3)c2c1 [CP-724714]
% of control [1]: 100%
% of control [2]: 100%

% of control ([3]; at 1 µM): 67%
% of control ([3]; at 5 µM): 37%
SMILES: C=CC(=O)Nc1cccc(C(=O)Nc2ccc(Nc3cc(-c4[nH]c(SC)nc4C)ccn3)cc2)c1

% of inhibition [4]: -6%
SMILES: Cc1ccc(-c2ccc3c(ccc4sc5c(c43)NC[C@@H](C)NC5=O)n2)cn1
